Target: T1, human AMPK α1β1γ1 enzyme (Homo sapiens, UniProt Q13131+Q9Y478)
T1 construct: purchased Carna Biosciences, Inc
Test: AMPK activator evaluation, Test Example 1 (mobility shift, FL-Peptide 7)
Format: biochemical
Settings: human AMPK α1β1γ1, control without compound = 100%; for Emax: read-out: Emax (maximum rate of increase in activity within the measurement range)
Method: To a buffer solution consisting of a 50 mM HEPES-NaOH buffer solution (pH 7.0), 100 mM NaCl, 10 mM magnesium chloride, 0.1% bovine serum albumin, 0.2 mM sodium orthovanadate(V), 1 mM ethylene glycol-bis(2-aminoethyl ether)-N,N,N′,N′-tetraacetic acid (EGTA), 5 mM disodium (3-glycerophosphate and 2 mM dithiothreitol, a human AMPK α1β1γ1 enzyme (manufactured by Carna Biosciences, Inc.) was added in an amount to give a conversion rate of approximately 10% by reaction for 2 hours, and a compound dissolved in DMSO was added thereto so as to have a 1% DMSO concentration. The obtained liquid was left to stand for 10 minutes.
To the liquid, a substrate solution consisting of a 50 mM HEPES-NaOH buffer solution (pH 7.0), 100 mM NaCl, 10 mM magnesium chloride, 0.1% bovine serum albumin, 0.2 mM sodium orthovanadate(V), 1 mM ethylene glycol-bis(2-aminoethyl ether)-N,N,N′,N′ tetraacetic acid (EGTA), 5 mM disodium β-glycerophosphate, 2 mM dithiothreitol, 0.4 mM ATP and 3 μM FL-Peptide 7 (manufactured by Caliper Life Sciences, Inc.) was added in equal amount (10 μl in total). The obtained liquid was allowed to react at 25° C. for 2 hours, and 10 μl of 20 mM EDTA was then added thereto to stop the reaction.
To detect phosphorylated fluorescent substrates, the reaction liquid was applied to a measuring device, LabChip EZ Reader II manufactured by Caliper Life Science, Inc., for detecting fluorescence by using differences in mobility due to differences in charge. The setting conditions for the device were pressure, −1.5 PSI; upstream voltage, −2250 V; downstream voltage, −400 V; post sample buffer sip time, 40 seconds; final delay, 120 seconds; and peak order, Product First.

T1 sequence (Q13131 10-559 limits assumed): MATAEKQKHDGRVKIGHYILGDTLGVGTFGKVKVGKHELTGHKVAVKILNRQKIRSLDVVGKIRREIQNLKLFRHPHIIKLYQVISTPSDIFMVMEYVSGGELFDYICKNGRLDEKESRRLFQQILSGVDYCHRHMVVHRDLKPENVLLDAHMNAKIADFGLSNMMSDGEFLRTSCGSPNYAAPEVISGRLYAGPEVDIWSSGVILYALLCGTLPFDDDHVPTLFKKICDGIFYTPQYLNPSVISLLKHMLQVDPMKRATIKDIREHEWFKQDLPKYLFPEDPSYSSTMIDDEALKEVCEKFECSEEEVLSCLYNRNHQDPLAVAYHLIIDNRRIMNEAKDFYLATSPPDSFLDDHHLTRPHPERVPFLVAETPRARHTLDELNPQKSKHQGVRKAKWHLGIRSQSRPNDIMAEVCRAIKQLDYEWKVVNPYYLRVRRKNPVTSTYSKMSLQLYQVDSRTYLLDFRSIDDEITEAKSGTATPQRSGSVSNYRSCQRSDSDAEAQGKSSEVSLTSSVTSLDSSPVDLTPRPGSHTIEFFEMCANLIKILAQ
T1 sequence (Q9Y478 whole entry): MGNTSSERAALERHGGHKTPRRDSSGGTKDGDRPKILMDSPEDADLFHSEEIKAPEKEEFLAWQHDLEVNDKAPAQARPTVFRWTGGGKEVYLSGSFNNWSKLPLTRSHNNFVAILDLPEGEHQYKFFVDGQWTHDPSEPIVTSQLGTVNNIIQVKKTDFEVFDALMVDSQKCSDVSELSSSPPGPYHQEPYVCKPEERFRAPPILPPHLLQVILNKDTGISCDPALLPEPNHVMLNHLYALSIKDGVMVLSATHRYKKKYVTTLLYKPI
T1 sequence (P54619 whole entry partner): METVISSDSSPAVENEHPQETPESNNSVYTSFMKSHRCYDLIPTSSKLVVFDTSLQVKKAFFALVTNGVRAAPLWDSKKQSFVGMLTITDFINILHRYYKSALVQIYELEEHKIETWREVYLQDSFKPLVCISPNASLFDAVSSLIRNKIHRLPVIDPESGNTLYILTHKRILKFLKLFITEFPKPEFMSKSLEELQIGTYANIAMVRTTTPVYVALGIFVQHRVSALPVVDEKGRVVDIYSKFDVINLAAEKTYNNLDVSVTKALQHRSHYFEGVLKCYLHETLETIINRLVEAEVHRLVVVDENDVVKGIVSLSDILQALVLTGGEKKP

SMILES | EC150 (compound concentration showing 150% relative to the control) [nM] | Emax [%]
CC(C)(C(=O)NCCO)c1ccc(Oc2nc3nc(-c4ccc(N5CCOCC5)cc4)c(Cl)cc3[nH]2)cc1 [Compound C-107] | 300 | 232
Cc1ccc(Oc2nc3nc(N4CCCCC4)c(Cl)cc3[nH]2)cc1C(=O)O [Compound B-3] | 23 | 313
O=C(O)CCc1ccc(Oc2nc3nc(-c4ccc(N5CCOCC5)cc4)c(Cl)cc3[nH]2)cc1 [Compound B-136] | 27 | 333
Cc1ccc(Oc2nc3nc(-c4ccc(OCC(C)(C)O)cc4)c(Cl)cc3[nH]2)cc1C(=O)O [Compound C-21] | 36 | 338
Cc1ccc(Oc2nc3cc(-c4ccc5c(ccn5C)c4)ccc3[nH]2)cc1C(=O)O [Compound B-5] | 4700 | 176
Cc1ccc(Oc2nc3nc(-c4ccc(OCC(C)C)cc4)c(Cl)cc3[nH]2)cc1C(=O)O [Compound C-33] | 52 | 329
O=P(O)(O)c1cccc(Oc2nc3cc(Cl)c(-c4ccc(N5CCOCC5)cc4)nc3[nH]2)c1 [Compound C-118] | 2.1 | 334
Cc1ccc(Oc2nc3nc(-c4cccc(O)c4)c(Cl)cc3[nH]2)cc1C(=O)O [Compound B-40] | 110 | 297
NS(=O)(=O)c1ccc(Oc2nc3nc(-c4ccc(N5CCOCC5)cc4)c(Cl)cc3[nH]2)cc1 [Compound B-133] | 360 | 234
Cc1ccc(Oc2nc3nc(-c4ccc(CO)cc4)c(Cl)cc3[nH]2)cc1C(=O)O [Compound B-13] | 76 | 311
Cc1ccc(-c2ccc(-c3nc4nc(Oc5ccc(C)c(C(=O)O)c5)[nH]c4cc3Cl)cc2)cc1 [Compound B-32] | 70 | 301
O=C(O)c1cncc(Oc2nc3nc(-c4ccc(N5CCOCC5)cc4)c(Cl)cc3[nH]2)c1 [Compound B-126] | 180 | 262
CC(C)(C(=O)O)c1ccc(Oc2nc3nc(-c4ccc(N5CCOCC5)cc4)c(Cl)cc3[nH]2)cc1 [Compound B-107] | 250 | 249
Clc1cc2[nH]c(Oc3ccccc3)nc2nc1-c1ccc(N2CCOCC2)cc1 [Compound B-104] | 190 | 267
Cc1ccc(Oc2nc3nc(-c4ccc(N5CCOCC5)nc4)c(Cl)cc3[nH]2)cc1C(=O)O [Compound B-63] | 100 | 321
NC(=O)c1cccc2ccc(Oc3nc4nc(-c5ccc(N6CCOCC6)cc5)c(Cl)cc4[nH]3)cc12 [Compound B-113] | 13 | 316
CC(=O)NC(C)(C)c1ccc(Oc2nc3nc(-c4ccc(N5CCOCC5)cc4)c(Cl)cc3[nH]2)cc1 [Compound C-119] | 130 | 237
C#CC(C)Oc1nc2nc(-c3ccc(N4CCOCC4)cc3)c(Cl)cc2[nH]1 (stereo not drawn) [Compound B-2] | 3.6 | 399
CCc1ccc(Oc2nc3nc(-c4ccc(N5CCOCC5)cc4)c(Cl)cc3[nH]2)cn1 [Compound C-89] | 470 | 242
CC(C)(CO)c1ccc(Oc2nc3nc(-c4ccc(N5CCOCC5)cc4)c(Cl)cc3[nH]2)cc1 [Compound C-99] | 170 | 205
COc1ccc(-c2ccc(-c3nc4nc(Oc5ccc(C)c(C(=O)O)c5)[nH]c4cc3Cl)cc2)cc1 [Compound C-29] | 8.3 | 349
O=C(O)c1cc(Oc2nc3nc(-c4ccc(N5CCOCC5)cc4)c(Cl)cc3[nH]2)ccc1Cl [Compound C-32] | 68 | 253
OCc1ccc(Oc2nc3nc(-c4ccc(N5CCOCC5)cc4)c(Cl)cc3[nH]2)cc1 [Compound B-131] | 44 | 298
Cc1ccc(Oc2nc3nc(-c4ccc(N5CCOCC5)cc4)c(Cl)cc3[nH]2)cc1 [Compound B-121] | 97 | 278
O=C1CCc2ccc(Oc3nc4nc(-c5ccc(N6CCOCC6)cc5)c(Cl)cc4[nH]3)cc2N1 [Compound B-141] | 61 | 319
Cc1ccc(Oc2nc3nc(-c4ccc(N5CCOCC5)cc4)ncc3[nH]2)cc1C(=O)O [Compound B-7] | 5100 | 246

Continued, values first:

EC150 (compound concentration showing 150% relative to the control) [nM] | Emax [%] | SMILES
21 | 325 | CC(C)(C(=O)O)c1cccc(Oc2nc3nc(-c4ccc(N5CCOCC5)cc4)c(Cl)cc3[nH]2)c1 [Compound D-18]
82 | 282 | CC(=O)NC(C)(C)c1ccc(Oc2nc3nc(-c4cccc(N(C)C)c4)c(Cl)cc3[nH]2)cc1 [Compound D-26]
11 | 225 | COCC(=O)NC(C)(C)c1ccc(Oc2nc3nc(-c4ccc(N5CCOCC5)cc4)c(Cl)cc3[nH]2)cc1 [Compound D-50]
380 | 186 | CC(C)(CO)c1ccc(Oc2nc3nc(-c4ccc(N5CCOCC5)cc4)c(Cl)cc3[nH]2)cn1 [Compound D-9]
140 | 198 | CC(C)(C(N)=O)c1ccc(Oc2nc3nc(-c4ccc(C5(CO)CC5)cc4)c(Cl)cc3[nH]2)cc1 [Compound D-24]
220 | 255 | CC(=O)NC(C)(C)c1ncc(Oc2nc3nc(-c4ccc(N5CCOCC5)cc4)c(Cl)cc3[nH]2)cn1 [Compound D-2]
19 | 314 | CNc1ncc(Oc2nc3nc(-c4ccc(N5CCOCC5)cc4)c(Cl)cc3[nH]2)cn1 [Compound D-31]
66 | 224 | CC(=O)NC(C)(C)c1ccc(Oc2nc3nc(-c4ccc(C5(CO)CCC5)cc4)c(Cl)cc3[nH]2)cc1 [Compound D-58]
31 | 225 | CC(C)(NC(=O)CO)c1ccc(Oc2nc3nc(-c4ccc(N5CCOCC5)cc4)c(Cl)cc3[nH]2)cc1 [Compound D-25]
220 | 192 | CN1CCc2cc(-c3nc4nc(Oc5ccc(C(C)(C)C(N)=O)cc5)[nH]c4cc3Cl)ccc21 [Compound D-3]
52 | 220 | CC(=O)NCC(C)(C)c1ccc(Oc2nc3nc(-c4ccc(N5CCOCC5)cc4)c(Cl)cc3[nH]2)cc1 [Compound D-33]
68 | 211 | COC(=O)NC(C)(C)c1ccc(Oc2nc3nc(-c4ccc(N5CCOCC5)cc4)c(Cl)cc3[nH]2)cn1 [Compound D-56]
8.5 | 280 | CC(=O)NC(C)(C)c1ccc(Oc2nc3nc(-c4ccc(OCCO)cc4)c(Cl)cc3[nH]2)cc1 [Compound D-16]
180 | 214 | CC(=O)NC(C)(C)c1ccc(Oc2nc3nc(-c4ccc(C5=CCOCC5)cc4)c(Cl)cc3[nH]2)cn1 [Compound D-70]
2800 | 169 | CC(C)(NS(C)(=O)=O)c1ccc(Oc2nc3nc(-c4ccc(N5CCOCC5)cc4)c(Cl)cc3[nH]2)cc1 [Compound D-52]
4300 | 172 | CONC(=O)C(C)(C)c1ccc(Oc2nc3nc(-c4ccc(N5CCOCC5)cc4)c(Cl)cc3[nH]2)cn1 [Compound D-102]
80 | 267 | CC(=O)NC(C)(C)c1ccc(Oc2nc3nc(-c4ccc(NCCO)cc4)c(Cl)cc3[nH]2)cc1 [Compound D-62]
110 | 238 | CC(=O)NC(C)(C)c1ccc(Oc2nc3nc(-c4ccc(C5(C(C)O)CC5)cc4)c(Cl)cc3[nH]2)cc1 [Compound D-103]
3.3 | 301 | CC(=O)NC(C)(C)c1ccc(Oc2nc3nc(-c4ccc(C5=CCN(C)CC5)cc4)c(Cl)cc3[nH]2)cc1 [Compound D-108]

Source: patent publication US9133186B2, “Hetero ring-fused imidazole derivative having AMPK activating effect” (Shionogi & Co., Ltd., priority 2010, dated 2015)
